Data reported in patent US5767096A, “Bromotiacumicin compounds” (Abbott Laboratories, priority 1996, dated 1998).
In brackets after ≈: the same amount, converted by molar mass. Where two headings read alike, the source gives them in different places.

What was measured:
Assay type in all cases: cell-based
[1] = test system: Enterococcus faecium ATCC 8043; experiment: In vitro antibiotic activity (MIC), agar dilution, brain heart infusion agar; details: ~10^4 organisms per spot, 37° C., ~20 hours
Procedure: (§1) Optical rotations were measured on a Perkin-Elmer Model 241 polarimeter in a 10 cm cell. Fast atom bombardment mass spectra were measured on a Kratos MS-50 mass spectrometer. Ultraviolet spectra were recorded on a Perkin-Elmer Lambda 3B UV-visible spectrophotometer and infrared spectra on a Nicolet model 60SX FT-IR attached to a Nicolet computer. NMR spectra were acquired on either a General Electric GN500 or GN300 spectrometer. […] Rf values reported were acquired on Analtech TLC plates developed with chloroform:methanol (9:1, v:v) and were visualized using ceric sulfate spray reagent. Melting points were determined on a Hoover Unimelt and are reported uncorrected. Minimal inhibitory concentrations were determined by twofold agar dilution. Brain heart infusion agar was used for aerobes and Wilkins-Chalgren agar for anaerobes.
(§2) For primary screening of compounds of the invention against selected aerobic microorganisms, minimal inhibitory concentrations (MICs) were determined by the following agar dilution method: Series of two-fold dilutions of the test compounds were added to brain heart infusion agar. The agar plates were inoculated with approximately 10^4 organisms per spot of each of the organisms to be tested. These inoculated agar plates were then incubated at 37° C. for approximately 20 hours. The MICs were determined as the minimal concentration of test compound (in […]) that inhibited visible growth.

Escherichia coli JUHL = experiment: as above; details: ~10^4 organisms per spot, 37° C., ~20 hours
Procedure: as §1, §2

[2] = test system: Staphylococcus aureus ATCC 6538P; experiment: as above; details: ~10^4 organisms per spot, 37° C., ~20 hours
Procedure: as §1, §2

[3] = test system: Staphylococcus epidermidis 3519; experiment: as above; details: ~10^4 organisms per spot, 37° C., ~20 hours
Procedure: as §1, §2

[4] = test system: Streptococcus pyogenes EES61; experiment: as above; details: ~10^4 organisms per spot, 37° C., ~20 hours
Procedure: as §1, §2

[5] = test system: Clostridium difficile 2532; experiment: In vitro antibiotic activity (MIC) against anaerobes, agar dilution, Wilkins-Chalgren agar; details: anaerobe, ~10^5 organisms per spot, 37° C., ~48 hours
Procedure: as §1
as §2, with “anaerobic bacteria such as Clostridium,” for “selected aerobic microorganisms,”, “Wilkins-Chalgren” for “brain heart infusion”, “10^5” for “10^4”, “The” for “These”, “48” for “20”

[6] = test system: Clostridium difficile ATCC 17857; experiment: as above; details: anaerobe, ~10^5 organisms per spot, 37° C., ~48 hours
Procedure: as §1
as §2, with “anaerobic bacteria such as Clostridium,” for “selected aerobic microorganisms,”, “Wilkins-Chalgren” for “brain heart infusion”, “10^5” for “10^4”, “The” for “These”, “48” for “20”

[7] = test system: Clostridium difficile ATCC 9689; experiment: as above; details: anaerobe, ~10^5 organisms per spot, 37° C., ~48 hours
Procedure: as §1
as §2, with “anaerobic bacteria such as Clostridium,” for “selected aerobic microorganisms,”, “Wilkins-Chalgren” for “brain heart infusion”, “10^5” for “10^4”, “The” for “These”, “48” for “20”

[8] = test system: Clostridium perfringes ATCC 13124; experiment: microbe, parasite or virus in culture; details: anaerobe, ~10^5 organisms per spot, 37° C., ~48 hours
Procedure: as §1, with “Fast” for “Optical rotations were measured on a Perkin-Elmer Model 241 polarimeter in a 10 cm cell. Fast”
as §2, with “anaerobic bacteria such as Clostridium,” for “selected aerobic microorganisms,”, “Wilkins-Chalgren” for “brain heart infusion”, “10^5” for “10^4”, “The” for “These”, “48” for “20”

[9] = test system: Bacteriodes thetaiotaomicron ATCC 29741; experiment: In vitro antibiotic activity (MIC) against anaerobes, agar dilution, Wilkins-Chalgren agar; details: anaerobe, ~10^5 organisms per spot, 37° C., ~48 hours
Procedure: as §1
as §2, with “anaerobic bacteria such as Clostridium,” for “selected aerobic microorganisms,”, “Wilkins-Chalgren” for “brain heart infusion”, “10^5” for “10^4”, “The” for “These”, “48” for “20”

[10] = test system: Bacteroides fragilis ATCC 25285; experiment: as above; details: ATCC25285, anaerobe, ~10^5 organisms per spot, 37° C., ~48 hours
Procedure: as §1
as §2, with “anaerobic bacteria such as Clostridium,” for “selected aerobic microorganisms,”, “Wilkins-Chalgren” for “brain heart infusion”, “10^5” for “10^4”, “The” for “These”, “48” for “20”

bacterial pathogens = experiment: In vitro activity against bacterial pathogens (summary in words); details: from Table 2
Procedure: Optical rotations were measured on a Perkin-Elmer Model 241 polarimeter in a 10 cm cell. Fast atom bombardment mass spectra were measured on a Kratos MS-50 mass spectrometer. Ultraviolet spectra were recorded on a Perkin-Elmer Lambda 3B UV-visible spectrophotometer and infrared spectra on a Nicolet model 60SX FT-IR attached to a Nicolet computer. NMR spectra were acquired on either a General Electric GN500 or GN300 spectrometer. NMR spectral data are reported in Table 1 (following Example 6 below). Rf values reported were acquired on Analtech TLC plates developed with chloroform:methanol (9:1, v:v) and were visualized using ceric sulfate spray reagent. Melting points were determined on a Hoover Unimelt and are reported uncorrected. Minimal inhibitory concentrations were determined by twofold agar dilution. Brain heart infusion agar was used for aerobes and Wilkins-Chalgren agar for anaerobes.
For primary screening of compounds of the invention against selected aerobic microorganisms, minimal inhibitory concentrations (MICs) were determined by the following agar dilution method: Series of two-fold dilutions of the test compounds were added to brain heart infusion agar. […] The MICs were determined as the minimal concentration of test compound (in […]) that inhibited visible growth. […]

[11] = Enterococcus faecium, ATCC8043, read-out: MIC
[12] = Escherichia coli, read-out: MIC
[13] = Staphylococcus aureus, ATCC6538P, read-out: MIC
[14] = Staphylococcus epidermidis, 3519, read-out: MIC
[15] = Streptococcus pyogenes, EES61, read-out: MIC
[16] = Clostridioides difficile, 2532, read-out: MIC
[17] = Clostridioides difficile, ATCC17857, read-out: MIC
[18] = Clostridioides difficile, ATCC9689, read-out: MIC
[19] = Clostridium, ATCC13124, read-out: MIC

Molecule | MIC [1] | MIC (Escherichia coli JUHL) | MIC [2] | MIC [3] | MIC [4] | MIC [5] | MIC [6] | MIC [7] | MIC [8] | MIC [1, 11] | MIC (Escherichia coli JUHL; [12]) | MIC [2, 13] | MIC [3, 14] | MIC [4, 15] | MIC [9] | MIC [10] | MIC [5, 16] | MIC [6, 17] | MIC [7, 18] | MIC [8, 19] | further results
4'",6'"-didechloro-4'"-bromotiacumicin C [Ex. 6] | 25 µg/mL | > 200 µg/mL | 50 µg/mL | 50 µg/mL | 50 µg/mL | 2 µg/mL | 1 µg/mL | 0.5 µg/mL | 0.06 µg/mL |  |  |  |  |  |  |  |  |  |  |  | 
CCc1c(Br)c(O)c(Cl)c(O)c1C(=O)O[C@H]1[C@H](O)[C@H](OC)[C@H](OC/C2=C\C=C\C[C@H](O)/C(C)=C/[C@H](CC)[C@@H](O[C@@H]3OC(C)(C)[C@@H](OC(=O)C(C)C)[C@H](O)[C@@H]3O)/C(C)=C/C(C)=C/C[C@@H]([C@@H](C)O)OC2=O)O[C@@H]1C [Ex. 3, 6'"-dechloro-6'"-bromotiacumicin B] |  |  |  |  |  |  |  |  |  | 6.2 µg/mL (≈ 5.62 µM) | > 200 µg/mL | 6.2 µg/mL (≈ 5.62 µM) | 6.2 µg/mL (≈ 5.62 µM) | 6.2 µg/mL (≈ 5.62 µM) | > 128 µg/mL | > 128 µg/mL | 0.06 µg/mL (≈ 0.0544 µM) | 0.06 µg/mL (≈ 0.0544 µM) | 0.06 µg/mL (≈ 0.0544 µM) | 0.03 µg/mL (≈ 0.0272 µM) | potency among compounds of this invention (bacterial pathogens): the most potent of the compounds of this invention; potency compared with tiacumicin B (bacterial pathogens): quite comparable to tiacumicin B
4'",6'"-didechloro-4'"-bromotiacumicin B [Ex. 5] | 12.5 µg/mL | > 200 µg/mL | 6.2 µg/mL | 12.5 µg/mL | 25 µg/mL | 0.5 µg/mL | 0.25 µg/mL | 0.12 µg/mL | <= 0.06 μg/mL |  |  |  |  |  |  |  |  |  |  |  | 
CCc1c(Br)c(O)c(Cl)c(O)c1C(=O)O[C@H]1[C@H](O)[C@H](OC)[C@H](OC/C2=C\C=C\C[C@H](O)/C(C)=C/[C@H](CC)[C@@H](O[C@@H]3OC(C)(C)[C@@H](OC(=O)C(C)C)[C@H](O)[C@@H]3O)/C(C)=C/C(C)=C/C[C@@H](C(C)=O)OC2=O)O[C@@H]1C [Ex. 4, 6'"-dechloro-6'"-bromo-18-ketotiacumicin B] |  |  |  |  |  |  |  |  |  | 50 µg/mL (≈ 45.4 µM) | > 200 µg/mL | 50 µg/mL (≈ 45.4 µM) | 100 µg/mL (≈ 90.9 µM) | 50 µg/mL (≈ 45.4 µM) | > 128 µg/mL | > 128 µg/mL | 1 µg/mL (≈ 0.909 µM) | 0.25 µg/mL (≈ 0.227 µM) | 0.25 µg/mL (≈ 0.227 µM) | 0.015 µg/mL (≈ 0.0136 µM) | 
